Results published in ChEMBL document CHEMBL1201862, “PubChem BioAssay data set” (2004).
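A five-concentration, 48-hour dose response in 96-well plates underlies each endpoint, interpolated linearly between surrounding concentrations. At the GI50, growth is halved.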 The source made the active and inactive calls. Cut-off read from the data, not from the text of the source: active = GI50 up to about 1.1 µM and inactive = higher.

Legend:
Assay in all cases: NCI anticancer screen, dose series, 48 h
HCT-15 = tested on: HCT-15
SNB-19 = tested on: SNB-19
LOX IMVI = tested on: LOX IMVI
IGROV-1 = tested on: IGROV-1
SK-MEL-2 = tested on: SK-MEL-2
PC-3 = tested on: PC-3
SW-620 = tested on: SW-620
NCI-H226 = tested on: NCI-H226
HOP-62 = tested on: HOP-62
RXF 393 = tested on: RXF 393
UACC-62 = tested on: UACC-62
OVCAR-4 = tested on: OVCAR-4
UACC-257 = tested on: UACC-257
SN12C = tested on: SN12C
HL-60 = tested on: HL-60
HCT-116 = tested on: HCT-116
CCRF-CEM = tested on: CCRF-CEM
OVCAR-5 = tested on: OVCAR-5
SK-MEL-28 = tested on: SK-MEL-28
COLO 205 = tested on: COLO 205
NCI-H522 = tested on: NCI-H522
KM12 = tested on: KM12
A498 = tested on: A498
MDA-N = tested on: MDA-N
NCI-H460 = tested on: NCI-H460
NCI-H23 = tested on: NCI-H23
TK-10 = tested on: TK-10
ACHN = tested on: ACHN
T47D = tested on: T47D
BT-549 = tested on: BT-549
MOLT-4 = tested on: MOLT-4
SF-539 = tested on: SF-539
DU-145 = tested on: DU-145
MDA-MB-231 = tested on: MDA-MB-231
K562 = tested on: K562
UO-31 = tested on: UO-31
SR = tested on: SR
HT-29 = tested on: HT-29
SF-268 = tested on: SF-268
CAKI-1 = tested on: CAKI-1
SK-MEL-5 = tested on: SK-MEL-5
OVCAR-8 = tested on: OVCAR-8
RPMI-8226 = tested on: RPMI-8226
MCF7 = tested on: MCF7
Malme-3M = tested on: Malme-3M
U-251 = tested on: U-251
EKVX = tested on: EKVX
SF-295 = tested on: SF-295
786-0 = tested on: 786-0
MDA-MB-435 = tested on: MDA-MB-435
HCC 2998 = tested on: HCC 2998
OVCAR-3 = tested on: OVCAR-3
M14 = tested on: M14
NCI/ADR-RES = tested on: NCI/ADR-RES
SNB-75 = tested on: SNB-75
SK-OV-3 = tested on: SK-OV-3
A549 = tested on: A549
HOP-92 = tested on: HOP-92

For c1cc(-c2ccc(-c3nc4ccc(C5=NCCN5)cc4s3)s2)ccc1C1=NCCN1, the GI50 (HCT-15) was 2.17 µM, the GI50 (SNB-19) was 0.618 µM (active) and the GI50 (LOX IMVI) was 0.262 µM (active). The GI50 (IGROV-1) was 0.313 µM (active), the GI50 (SK-MEL-2) was 1.27 µM (inactive) and the GI50 (PC-3) was 0.805 µM (active). For the same compound, the GI50 (SW-620) was 1.02 µM (active), the GI50 (NCI-H226) was 0.308 µM (active) and the GI50 (HOP-62) was 0.187 µM (active). For the same compound, the GI50 (RXF 393) was 0.152 µM (active), the GI50 (UACC-62) was 1.12 µM (inactive) and the GI50 (OVCAR-4) was 0.182 µM (active). The GI50 (UACC-257) was 22.5 µM (inactive), the GI50 (SN12C) was 0.172 µM (active) and the GI50 (HL-60) was 0.394 µM (active). The GI50 (HCT-116) was 0.351 µM (active), the GI50 (CCRF-CEM) was 0.0962 µM (active) and the GI50 (OVCAR-5) was 0.444 µM (active). For the same compound, the GI50 (SK-MEL-28) was 1.71 µM (inactive), the GI50 (COLO 205) was 1.11 µM (active) and the GI50 (NCI-H522) was 0.114 µM (active). The GI50 (KM12) was 0.565 µM (active), the GI50 (A498) was 0.719 µM (active) and the GI50 (MDA-N) was 0.723 µM (active). For the same compound, the GI50 (NCI-H460) was 0.286 µM (active), the GI50 (NCI-H23) was 0.813 µM (active) and the GI50 (TK-10) was 0.804 µM (active). The GI50 (ACHN) was 0.562 µM (active), the GI50 (T47D) was 0.483 µM (active) and the GI50 (BT-549) was 1.23 µM (inactive). For the same compound, the GI50 (MOLT-4) was 0.0968 µM (active), the GI50 (SF-539) was 0.296 µM (active) and the GI50 (DU-145) was 0.19 µM (active). The GI50 (MDA-MB-231) was 0.234 µM (active), the GI50 (K562) was 0.82 µM (active) and the GI50 (UO-31) was 1.02 µM (active). The GI50 (SR) was 0.231 µM (active), the GI50 (HT-29) was 0.596 µM (active) and the GI50 (SF-268) was 0.214 µM (active). For the same compound, the GI50 (CAKI-1) was 1.51 µM (inactive), the GI50 (SK-MEL-5) was 0.955 µM (active) and the GI50 (OVCAR-8) was 0.296 µM (active). For the same compound, the GI50 (RPMI-8226) was 0.295 µM (active), the GI50 (MCF7) was 0.0372 µM (active) and the GI50 (Malme-3M) was 1.02 µM (active). The GI50 (U-251) was 0.222 µM (active), the GI50 (EKVX) was 1.28 µM (inactive) and the GI50 (SF-295) was 0.301 µM (active). For the same compound, the GI50 (786-0) was 0.156 µM (active), the GI50 (MDA-MB-435) was 0.841 µM (active) and the GI50 (HCC 2998) was 0.0292 µM (active). For the same compound, the GI50 (OVCAR-3) was 0.979 µM (active), the GI50 (M14) was 0.912 µM (active) and the GI50 (NCI/ADR-RES) was 5.53 µM (inactive). The GI50 (SNB-75) was 0.222 µM (active), the GI50 (SK-OV-3) was 0.711 µM (active) and the GI50 (A549) was 0.166 µM (active). For the same compound, the GI50 (HOP-92) was 0.299 µM (active).
